Measured values reported in US5624894A, “Brain-enhanced delivery of neuroactive peptides by sequential metabolism” (University of Florida, priority 1995, dated 1997).
Several values for one entry are separate records, joined by “and”; a condition that tells them apart may be missing. Identical values can stand only once. Square brackets hold non-standard residues; d marks the D form. Peptide text beside a SMILES is read from it. * marks the point of attachment. O(cholesteryl) = CC(C)CCC[C@@H](C)[C@H]1CC[C@H]2[C@@H]3CC=C4C[C@@H](O*)CC[C@]4(C)[C@H]3CC[C@]12C; Nicotinoyl(1-Me-1,4-dihydro) = CN1C=CCC(C(=O)*)=C1; pGlu = O=C1CC[C@@H](C(=O)O)N1

Experiments:
[1] = test system: Swiss Webster mice; test: Methohexital (barbiturate)-induced sleeping time in mice after i.v. injection; assay type: in vivo; settings: for methohexital induced sleeping time, individual animals / methohexital induced sleeping time, mean: methohexital 90 mg/kg i.p. 10 min later; for methohexital induced sleeping time, individual animals / methohexital induced sleeping time, mean / No. of Death / behavior / symptoms of animals after i.v. administration: mice
Source text: Two representative chemical delivery systems (CDS's) of the invention for the TRH analog [Leu^2 ]-TRH, i.e., compound (8) of Scheme I/EXAMPLE 8, which has an alanine spacer, and compound (12) of Scheme II/Example 12, which has an alanine-alanine spacer, were studied for their effects on the barbiturate-induced sleeping time in mice. TRH is known to antagonize the reduction in cholinergic activity induced by barbiturates. Thus, the activational effects of the CDS's for TRH analogs on cholinergic neurons can be measured by quantitating the antagonism of pentobarbital-induced sleeping and barbiturate-induced reduction in cholinergic neuronal activity.
Swiss Webster mice weighing 30±2 g were used. The compounds were dissolved in a vehicle consisting of DMSO, ethanol and 50% (w/w) 2-hydroxypropyl-β-cyclodextrin at a ratio of 1:2:1 (15 mg/ml). CDS's at a dose of 30 mg/kg were injected in the animals through the tail vein. Vehicle only and an equimolar dose of TRH and [Leu^2 ]-TRH, 10 mg/kg, were also administered to compare CNS activities. Ten minutes after i.v. injection of the compound, each animal received an intraperitoneal injection of sodium methohexital solution (45 mg/ml) at a dose of 90 mg/kg. The sleeping time was recorded as the time elapsed from the onset of loss of the […] until the reflex was regained. Each compound and the vehicle control were tested on 5-11 animals. The statistical analysis was performed using the Student's t test.

[2] = test system: Sprague-Dawley rats; test: Rat tail flick test (analgesia) after i.v. administration; assay type: in vivo; set-up: Area under the latency change vs. time curve, AUC0-240 min: unit not given here; settings: for Tail flick latency period / Maximum tail flick latency: cutoff 60 s; for Tail flick latency period / Maximum tail flick latency / Area under the latency change vs. time curve, AUC0-240 min: mean ± S.E.; for Number of Animals with maximum tail flick latency >60 seconds: cutoff latency 60 seconds; for analgesic effect in tail flick test (in words): i.v., compared to control
Procedure: Sprague-Dawley rats weighing 200-250 g were used. Drugs were dissolved in the vehicle consisting of DMSO, ethanol and 50% (w/w) 2-hydroxypropyl-β-cyclodextrin at a ratio of 1:2:1. A-CDS at a dose of 5 or 10 mg/2 ml/kg was injected in the animals through the tail vein. Vehicle only, or an equimolar dose (5 mg/kg) of DADLE (equimolar to 10 mg/kg of A-CDS) was also administered to compare the pharmacological activities. Tail flick latency, an index of spinal cord mediated analgesia, was measured before (control) and at 5 minutes, 15 minutes, 30 minutes, 1 hour, 2 hours, 3 hours, 4 hours, 5 hours and 6 hours after drug administration. The instrument used was a model 33 tail flick analgesia meter (lite, Inc., Landing, N.J.) set with the beam dial at 90 and the sensitivity at 8. Time between presentation of a focused beam of light and the reflexive removal of the tail from the stimulus was defined as the tail flick latency period, and the tail flick latency difference between each time point and control was defined as the change in tail flick latency. In the absence of response, a cut-off period of 1 minute was used. Each drug at each dose was tested in ten animals. Results are presented in Tables 5-8 below and in FIGS. 3-5.
Another representative chemical delivery system (AA-CDS) of the invention for the enkephalin analog DADLE, namely compound (69) of EXAMPLE 69, which has an alanine-alanine spacer, was studied in the same rat tail flick test procedure described above to determine its analgesic effects compared to DADLE itself. AA-CDS was tested at a dose of 10 mg/2 ml/kg, which is equimolar to 5 mg/kg of DADLE, and compared with vehicle and 5mg/kg of DADLE exactly as described above. Each dose was tested in ten animals.

[3] = Table 2 experiment, 10 mg/kg i.v.
[4] = 5 mg/kg i.v., 0 min (prior to drug administration)
[5] = 10 mg/kg i.v., 0 min (prior to drug administration)
[6] = Table 1 experiment, 10 mg/kg i.v. (equimolar)
[7] = Table 1 experiment, CDS 30 mg/kg i.v.

NC(=O)[C@@H]1CCCN1C(=O)[C@H](Cc1cnc[nH]1)NC(=O)[C@@H]1CCC(=O)N1 [TRH, PyroGlu-His-Pro-NH2]
methohexital induced sleeping time, individual animals [1, 3]: 20.47 min and 23.90 min and 15.00 min and 12.90 min and 11.17 min and 11.77 min and 40.82 min | methohexital induced sleeping time, mean [1, 3]: 19.43 min | No. of Death [1, 3]: 2 | behavior / symptoms of animals after i.v. administration [1]: tremor, tail-elevation and piloerection

CC(C)CCC[C@@H](C)[C@H]1CC[C@H]2[C@@H]3CC=C4C[C@@H](OC(=O)[C@@H](CC(C)C)NC(=O)[C@H](Cc5ccccc5)NC(=O)CNC(=O)[C@@H](C)NC(=O)[C@H](Cc5ccc(O)cc5)NC(=O)[C@H](C)NC(=O)C5=CN(C)C=CC5)CC[C@]4(C)[C@H]3CC[C@]12C [Compound (64), 1,4-Dihydrotrigonellyl-Ala-Tyr-D-Ala-Gly-Phe-D-Leu-Cholesteryl Ester] ({Nicotinoyl(1-Me-1,4-dihydro)}-AY[dA]GF[dL]-{O(cholesteryl)})
Number of Animals with maximum tail flick latency 20-40 seconds ([2]; 5 mg/kg i.v.): 2 | Number of Animals with maximum tail flick latency 40-60 seconds ([2]; 5 mg/kg i.v.): 2 | Number of Animals with maximum tail flick latency <20 seconds ([2]; 5 mg/kg i.v.): 4 | Tail flick latency period [2, 4]: 7.24 ± 0.58 s | Tail flick latency period ([2]; 5 mg/kg i.v., 5 min): 25.95 ± 5.64 s | Tail flick latency period ([2]; 5 mg/kg i.v., 15 min): 20.63 ± 5.40 s | Tail flick latency period ([2]; 5 mg/kg i.v., 30 min): 14.22 ± 2.22 s | Tail flick latency period ([2]; 5 mg/kg i.v., 60 min): 13.00 ± 1.97 s | Tail flick latency period ([2]; 5 mg/kg i.v., 120 min): 18.37 ± 5.10 s | Tail flick latency period ([2]; 5 mg/kg i.v., 180 min): 16.63 ± 2.02 s | Tail flick latency period ([2]; 5 mg/kg i.v., 240 min): 20.28 ± 5.58 s | Tail flick latency period ([2]; 5 mg/kg i.v., 300 min): 17.84 ± 3.42 s | Maximum tail flick latency ([2]; 5 mg/kg i.v.): 33.05 ± 5.99 s | Number of Animals with maximum tail flick latency >60 seconds ([2]; 5 mg/kg i.v.): 2 | Area under the latency change vs. time curve, AUC0-240 min ([2]; 5 mg/kg i.v.): 2528.70 ± 663.78 | Number of Animals with maximum tail flick latency 20-40 seconds ([2]; 10 mg/kg i.v.): 1 | Number of Animals with maximum tail flick latency 40-60 seconds ([2]; 10 mg/kg i.v.): 3 | Number of Animals with maximum tail flick latency <20 seconds ([2]; 10 mg/kg i.v.): 0 | Tail flick latency period [2, 5]: 9.21 ± 0.53 s | Tail flick latency period ([2]; 10 mg/kg i.v., 5 min): 49.67 ± 4.67 s | Tail flick latency period ([2]; 10 mg/kg i.v., 15 min): 40.71 ± 7.00 s | Tail flick latency period ([2]; 10 mg/kg i.v., 30 min): 36.03 ± 6.34 s | Tail flick latency period ([2]; 10 mg/kg i.v., 60 min): 32.59 ± 6.63 s | Tail flick latency period ([2]; 10 mg/kg i.v., 120 min): 26.28 ± 4.56 s | Tail flick latency period ([2]; 10 mg/kg i.v., 180 min): 28.50 ± 4.40 s | Tail flick latency period ([2]; 10 mg/kg i.v., 240 min): 28.30 ± 4.68 s | Tail flick latency period ([2]; 10 mg/kg i.v., 300 min): 30.15 ± 3.81 s | Maximum tail flick latency ([2]; 10 mg/kg i.v.): 51.94 ± 3.83 s | Number of Animals with maximum tail flick latency >60 seconds ([2]; 10 mg/kg i.v.): 6 | Area under the latency change vs. time curve, AUC0-240 min ([2]; 10 mg/kg i.v.): 4897.80 ± 1011.63 | analgesic effect in tail flick test (in words) [2]: significant and prolonged increase in the latency of the tail-flick response

CC(C)C[C@@H](NC(=O)[C@H](Cc1ccccc1)NC(=O)CNC(=O)[C@@H](C)NC(=O)[C@@H](N)Cc1ccc(O)cc1)C(=O)O [DADLE, H-Tyr-D-Ala-Gly-Phe-D-Leu-OH, reference compound]
Number of Animals with maximum tail flick latency 20-40 seconds ([2]; 5 mg/kg i.v.): 3 | Number of Animals with maximum tail flick latency 40-60 seconds ([2]; 5 mg/kg i.v.): 0 | Number of Animals with maximum tail flick latency <20 seconds ([2]; 5 mg/kg i.v.): 7 | Tail flick latency period [2, 4]: 7.97 ± 0.60 s | Tail flick latency period ([2]; 5 mg/kg i.v., 5 min): 12.15 ± 1.53 s | Tail flick latency period ([2]; 5 mg/kg i.v., 15 min): 12.67 ± 1.18 s | Tail flick latency period ([2]; 5 mg/kg i.v., 30 min): 12.66 ± 1.70 s | Tail flick latency period ([2]; 5 mg/kg i.v., 60 min): 15.75 ± 3.03 s | Tail flick latency period ([2]; 5 mg/kg i.v., 120 min): 10.11 ± 1.29 s | Tail flick latency period ([2]; 5 mg/kg i.v., 180 min): 10.94 ± 1.65 s | Tail flick latency period ([2]; 5 mg/kg i.v., 240 min): 10.64 ± 1.68 s | Tail flick latency period ([2]; 5 mg/kg i.v., 300 min): 10.02 ± 1.08 s | Maximum tail flick latency ([2]; 5 mg/kg i.v.): 19.68 ± 2.42 s | Number of Animals with maximum tail flick latency >60 seconds ([2]; 5 mg/kg i.v.): 0 | Area under the latency change vs. time curve, AUC0-240 min ([2]; 5 mg/kg i.v.): 775.58 ± 273.20

CC(C)CCC[C@@H](C)[C@H]1CC[C@H]2[C@@H]3CC=C4C[C@@H](OC(=O)[C@@H](CC(C)C)NC(=O)[C@H](Cc5ccccc5)NC(=O)CNC(=O)[C@@H](C)NC(=O)[C@H](Cc5ccc(O)cc5)NC(=O)[C@H](C)NC(=O)[C@H](C)NC(=O)C5=CN(C)C=CC5)CC[C@]4(C)[C@H]3CC[C@]12C [Compound (69), 1,4Dihydrotrigonellyl-Ala-Ala-Tyr-D-Ala-Gly-Phe-D-Leu-Cholesteryl Ester] ({Nicotinoyl(1-Me-1,4-dihydro)}-AAY[dA]GF[dL]-{O(cholesteryl)})
Number of Animals with maximum tail flick latency 20-40 seconds ([2]; 10 mg/kg i.v.): 2 | Number of Animals with maximum tail flick latency 40-60 seconds ([2]; 10 mg/kg i.v.): 2 | Number of Animals with maximum tail flick latency <20 seconds ([2]; 10 mg/kg i.v.): 3 | Tail flick latency period [2, 5]: 8.47 ± 0.76 s | Tail flick latency period ([2]; 10 mg/kg i.v., 5 min): 29.78 ± 5.99 s | Tail flick latency period ([2]; 10 mg/kg i.v., 15 min): 20.24 ± 5.07 s | Tail flick latency period ([2]; 10 mg/kg i.v., 30 min): 20.41 ± 5.42 s | Tail flick latency period ([2]; 10 mg/kg i.v., 60 min): 13.77 ± 2.01 s | Tail flick latency period ([2]; 10 mg/kg i.v., 120 min): 11.81 ± 0.99 s | Tail flick latency period ([2]; 10 mg/kg i.v., 180 min): 15.94 ± 1.89 s | Tail flick latency period ([2]; 10 mg/kg i.v., 240 min): 13.99 ± 0.95 s | Tail flick latency period ([2]; 10 mg/kg i.v., 300 min): 18.43 ± 4.52 s | Maximum tail flick latency ([2]; 10 mg/kg i.v.): 34.27 ± 6.20 s | Number of Animals with maximum tail flick latency >60 seconds ([2]; 10 mg/kg i.v.): 2 | Area under the latency change vs. time curve, AUC0-240 min ([2]; 10 mg/kg i.v.): 1639.67 ± 266.61 | analgesic effect in tail flick test (in words) [2]: produced a significant analgesic effect

CC(C)C[C@H](NC(=O)[C@@H]1CCC(=O)N1)C(=O)N1CCC[C@H]1C(N)=O [[Leu^2]-TRH, PyroGlu-Leu-Pro-NH2] ([pGlu]-Leu-Pro-NH2)
methohexital induced sleeping time, individual animals [1, 6]: 33.95 min and 37.37 min and 28.22 min and 15.03 min and 33.63 min and 20.90 min and 27.97 min and 36.80 min | methohexital induced sleeping time, mean [1, 6]: 29.23 min | methohexital induced sleeping time, individual animals [1, 3]: 15.18 min and 11.95 min and 12.47 min and 11.17 min and 8.53 min and 8.02 min | methohexital induced sleeping time, mean [1, 3]: 11.22 min | effect on barbiturate-induced sleeping time (in words) ([1]; first experiment (Table 1), compared to control or [Leu2]-TRH): no significant difference between the control and [Leu^2 ]-TRH | behavior / symptoms of animals after i.v. administration [1]: a few animals (1-2) showed the same symptoms as in the case of TRH | effect on sleeping time (in words) ([1]; second experiment (Table 2), compared to TRH or vehicle control): significantly reduced

CC(C)CCC[C@@H](C)[C@H]1CC[C@H]2[C@@H]3CC=C4C[C@@H](OC(=O)CNC(=O)[C@@H]5CCCN5C(=O)[C@H](CC(C)C)NC(=O)[C@H](CCC(N)=O)NC(=O)[C@H](C)NC(=O)C5=CN(C)C=CC5)CC[C@]4(C)[C@H]3CC[C@]12C [Compound (8), 1.4-Dihydrotrigonellyl-Ala-Gln-Leu-Pro-Gly-Cholesteryl Ester] ({Nicotinoyl(1-Me-1,4-dihydro)}-AQLPG-{O(cholesteryl)})
methohexital induced sleeping time, individual animals [1, 7]: 18.23 min and 15.33 min and 11.90 min and 17.27 min and 46.07 min and 18.58 min and 15.73 min and 34.43 min and 16.15 min | methohexital induced sleeping time, mean [1, 7]: 21.52 min | No. of Death [1, 7]: 2
